Measured values: publication PMC11413778, “Honokiol enhances the sensitivity of cetuximab in KRAS^G13D mutant colorectal cancer through destroying SNX3-retromer complex” (Theranostics, 2024)

Target: T1, SNX3 (Homo sapiens, UniProt O60493)
T1 construct: Recombinant Human SNX3 protein (ab109970)
Test: biolayer interferometry (biotinylated SNX3 on SA biosensor), supported by CETSA in HCT116 and LoVo lysates
Type: binding

T1 sequence (O60493 2-162): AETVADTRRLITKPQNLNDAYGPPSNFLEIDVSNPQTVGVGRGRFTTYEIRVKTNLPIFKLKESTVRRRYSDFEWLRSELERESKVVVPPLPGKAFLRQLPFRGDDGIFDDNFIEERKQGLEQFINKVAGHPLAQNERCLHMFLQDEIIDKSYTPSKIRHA

Kd: 29 µM
Structure (SMILES): C=CCc1ccc(O)c(-c2ccc(O)c(CC=C)c2)c1 [HNK, honokiol]
